What was measured:
Type in all cases: cell-based
NEAT1 = NEAT1 expression (qRT-PCR) in treated prostate cancer cell lines; settings: for NEAT1 expression: VCaP cells
Description: Cell culture and treatments: LnCaP and PC3 cells were grown in RPMI 1640 (Invitrogen) and supplemented with 10% fetal bovine serum (FBS) and 1% penicillin-streptomycin. RWPE1 cells were grown in Keratinocyte Serum Free Medium (K-SFM), Kit (Gibco, #17005-042). VCaP and DU145 cells were grown in DMEM (Invitrogen) and supplemented with 10% fetal bovine serum (FBS) with 1% penicillin streptomycin. NCI-H660 cells were grown in RPMI 1640 supplemented with 0.005 mg/ml insulin, 0.01 mg/ml transferrin, 30 nM sodium selenite, 10 nM hydrocortisone, 10 nM β-estradiol, 5% FBS, 1% penicillin-streptomycin and an extra 2 mM of L-glutamine (for a final concentration of 4 mM). For cell treatments in several experiments, the inventors used 10-100 nM β-estradiol (Sigma Aldrich), 10 μM Enzalutamide (Astellas), 10 μM bicalutamide (Sigma Aldrich), 1-10 nM R1881 (PE Biosystems), 10-100 nM 4-hydroxy tamoxifen (4OHT) (Sigma Aldrich), 1-10 μM ICI […] (Tocris Bioscience).
RNA isolation, cDNA synthesis and PCR experiments: Total RNA was isolated from frozen prostate tissue samples (for qPCR) and cell lines (for transcriptome sequencing and qPCR) using Trizol (Invitrogen) with DNase I digestion according to manufacturer's instructions. RNA integrity was verified on an Agilent Bioanalyzer 2100 (Agilent Technologies). cDNA was synthesized from total RNA using Superscript III (Invitrogen) and random primers (Invitrogen). Quantitative RT-PCR was performed using Power SYBR Green Mastermix (Applied Biosystems) on an Applied Biosystems 7900 Fast Real Time PCR machine. All primers were designed using Primer 3 and synthesized by Integrated DNA Technologies.
To test this hypothesis in vitro, the inventors evaluated the effect of anti-estrogens and anti-androgens on NEAT1 levels in prostate cancer cell lines.

VCaP cells [1] = assay: Cell invasion assay (CHEMICON kit); settings: E2 (10 nM), 48 hrs
Description: Invasion assay: The CHEMICON cell invasion assay kit (EMD MIlipore) was used for determining the cell invasion. Cells were serum-starved for 48 hours and then seeded at a density of 2×10^5 cells/well in the upper well of the invasion chamber. 500 μl of phenol res free DMEM media supplemented with 8% charcoal stripped serum and 10 nM E2 was added to the lower chamber. After 48-hour incubation, the invaded cells were stained by dipping the inserts in the staining solution for 20 minutes. The stained cells were then dissolved in 10% acetic acid and transferred to a 96-well plate for colorimetric reading of OD at 560 nm.

VCaP cells [2] = assay: Colony-forming assay in NEAT1-overexpressing VCaP cells; settings: NEAT1-overexpressing VCaP cells with vs without E2 (10 nM), 21 days
Description: Soft agar assays were performed in both VCaP and VCaP NEAT1 cells. Colonies were monitored over a period of 21 days. […] These in vitro assays establish an oncogenic role for NEAT1.

NEAT1 promoter = NEAT1 promoter luciferase reporter assay; settings: VCaP cells with ERα expression, -/+ E2 (10 nM) 24 hr
Source text: Luciferase reporter assays: For ERE luciferase assays, VCaP cells were transiently transfected with the (ERE)3-5V40-luc reporter plasmid and/or ERα and/or AR as well as an internal control construct pRL harboring the renilla luciferase gene. VCaP cells were also transfected with empty vector or NEAT1 promoter (1+2) luciferase reporter constructs alone or with ERα as well as an internal control construct pRL harboring renilla luciferase gene. In order to determine the PSMA reporter activity, 293T cells and PC3 cells were co transfected with empty vector or PSMA luc and Renilla-luc reporter genes alone or with NEAT1, NEAT1+ERα, or NEAT1+AR.
[…] At 48 h cells were lysed with passive lysis buffer and luciferase activities were measured using the dual luciferase system (#E1910, Promega) and normalized with renilla luciferase activity.
The inventors inspected our ERα ChIP-seq data in VCaP ERα and NCI-H660 cells and identified two ERα binding sites on the NEAT1 promoter (FIG. 2d). […] ERα recruitment to specific regions of the NEAT1 promoter was independently validated by ERα ChIP in VCaP, VCaP ERα and NCI-H660 cells (FIG. 2e) using specific primers encompassing ERα binding sites in the NEAT1 promoter. […]

[3] = ERα antagonist alone for longer periods
[4] = ERα antagonist in combination with E2 (10 nM)

With 4-hydroxy tamoxifen [4OHT] the NEAT1 expression (NEAT1; [3]) was “enhance NEAT1 expression” and the NEAT1 expression (NEAT1; [4]) was “constrained”.
For `C[C@]12CC[C@@H]3c4ccc(O)cc4C[C@@H](CCCCCCCCC[S+]([O-])CCCC(F)(F)C(F)(F)F)[C@H]3[C@@H]1CC[C@@H]2O` (some centres unmarked) [ICI 182,720], the NEAT1 expression (NEAT1; [3]) was “enhance NEAT1 expression” and the NEAT1 expression (NEAT1; [4]) was “constrained”.
β-estradiol [E2] was tested, and the invasive potential (VCaP cells [1]) was “ligand-dependent modulation of invasive potential”, the NEAT1 transcript levels (NEAT1; panel of prostate cancer cell lines, ERα overexpression and E2 treatment (10 nM), different time points) was “upregulated NEAT1 transcript levels in a time-dependent manner” and the number of colonies (VCaP cells [2]) was “significantly increased the number of colonies”. The NEAT1 promoter activity (NEAT1 promoter) was “further enhanced”.

From US10294476B2, “NEAT1 as a prognostic marker and therapeutic target for prostate cancer” (CORNELL UNIVERSITY, priority 2014, dated 2019)
